# Experimental data taken from US20100130619A1, “PHARMACEUTICAL COMPOSITION FOR PARENTERAL ADMINISTRATION OF IDEBENONE” (priority 2008, published 2010).
# Assays:
# [1] = tested on: microsomal lipid peroxidation; settings: cited from earlier work
# [2] = oral; cited from earlier work
# cerebrovascular disease = settings: nine patients, 90 mg daily; cited from earlier work
# [3] = tested on: learning and memory disturbances; settings: rats; cited from earlier work
# Solubility of Idebenone = assay type: physicochemical
# From the text: The low water solubility of Idebenone makes the task of producing an injectable form very difficult. Use of water miscible solvents (alcohol, propylene glycol, liquid PEG, N-methylpyrrolidone, etc.), where Idebenone dissolves well, is inappropriate due to the immediate precipitation of the drug upon contact with physiological fluids or a water phase. An inclusion complex of Idebenone with cyclodextrin has been described, but it is water dispersible, not soluble and not suitable for injection. The solubility of Idebenone in fixed oils (soy, corn, almond, etc.) is low; drug precipitates from such emulsions during storage, limiting their use for the preparation of injectable forms of […].
# Friedreich's Ataxia = settings: cited from earlier work
# [4] = tested on: cultured cortical neurons; settings: cited from earlier work
compound,measurement,setting,value
"COC1=C(OC)C(=O)C(CCCCCCCCCCO)=C(C)C1=O [Idebenone, 2,3-dimethoxy-5-methyl-6-(10-hydroxydecyl)-1,4-benzoquinone]",free radical scavenging,[1]; cell cultures,scavenges a variety of free radical species
same,microsomal lipid peroxidation,[1]; induced by ADP-iron complexes or organic hydroperoxides,inhibits microsomal lipid peroxidation
same,bioavailability,[2],relatively high
same,EEG and clinical symptoms,cerebrovascular disease,improvements in EEG and clinical symptoms
same,learning and memory disturbances,[3],ameliorates learning and memory disturbances
same,solubility in fixed oils,"Solubility of Idebenone; fixed oils (soy, corn, almond, etc.)",low
same,water solubility,Solubility of Idebenone; water,low
same,marker of oxidative DNA damage,Friedreich's Ataxia; oral 5 mg/kg daily for 8 weeks,significantly decreased
same,left ventricular enlargement,"Friedreich's Ataxia; three patients, 5 mg/kg daily for 4-9 months",reduction of left ventricular enlargement
same,rescue on delayed application,[4]; applied 30 minutes after the NMDA pulse,rescues cortical neurons
same,protection against necrotic degeneration,[4]; cultured cortical neurons,protects cultured cortical neurons against necrotic degeneration
